According to patent publication EP0475411B1, “Novel carbocyclic adenosine analogs useful as immunosuppressants” (Aventis Pharmaceuticals Inc., priority 1990, dated 1992):
Where a name gives a salt, the structure may show the parent alone. Read-outs that look alike come from different tables or passages of the source.

Assays:
[1] = tested on: Rat peritoneal macrophages; assay: Inhibition of priming of rat peritoneal macrophages (opsonized zymosan + rrIFN-γ), Superoxide Anion (O2-) assay; type: cell-based; settings: opsonized zymosan 3 mg/mL, rrIFN-γ 1000 Units/mL; compound 0 to 1000 µM; superoxide anion readout; read-out: IC50 (inhibits the priming of rat macrophages in vitro)
Procedure: Rat peritoneal macrophages were isolated and grown in cell culture essentially as described by Edwards et al. [Science 239, 769 (1988)]. Macrophages were incubated along with opsonized zymosan (3 mg/mL), which acts as a particulate stimulus, and recombinant rat γ-interferon (rrIFN-y)(1000Units/mL), which acts as an activating lymphokine, in the presence of various concentrations of (1S,3R)-Cis-l(9-adenyl)-3-hydroxycyclopentane (0 to 1000µM). The degree of macrophage priming was measured using the Superoxide Anion (O2-) assay as described by Edwards et al. [Science 239, 769 (1988)].

[2] = tested on: rat PMNs; assay: Inhibition of priming of rat PMN (PMA + rrIFN-γ or rHuIL-1), Superoxide Anion (O2-) assay; type: cell-based; settings: PMA 200 ηg/mL, compound 0 to 1000 µM, superoxide anion readout
Procedure: The rat air pouch model of inflammation was used to obtain rat PMNs using 25ηg/pouch of recombinant human interleukin-1 (rHuIL-1) to elicit the cells essentially according to the method of Esser et al. [Internat. J. Tissue Reactions XI, 291 (1989)]. PMNs were incubated along with phorbol myristate acetate (PMA)(200ηg/mL), which acts as a soluble stimulus, and rrIFN-γ (1000 Units/mL), which acts as a stimulatory lymphokine, or rHuIL-1 (500 Units/mL), which acts as a stimulatory cytokine, in the presence of various concentrations of (1S,3R)-Cis-1(9-adenyl)-3-hydroxycyclopentane (0 to 1000 µM). The degree of macrophage priming was measured using the Superoxide Anion (O2-) assay as described by Edwards et al. [Science 239, 769 (1988)].

IC50 [1] | IC50 ([2]; rHuIL-1 500 Units/mL, read-out: IC50 (inhibits the rHuIL-1 priming of rat PMN in vitro)) | IC50 ([2]; rrIFN-γ 1000 Units/mL, read-out: IC50 (inhibits the rrIFN-γ priming of rat PMN in vitro)) | Compound
2500 nM | – | – | (1S,3R)-Cis-l(9-adenyl)-3-hydroxy-4-cyclopentene
– | 1 nM | 1 nM | Nc1ncnc2c1ncn2[C@H]1CC[C@@H](O)C1 [(1S,3R)-Cis-1-(9-adenyl)-3-hydroxycyclopentane hydrochloride]
